Laboratory results from patent US11976059B2 (KOREA RESEARCH INSTITUTE OF CHEMICAL TECHNOLOGY, priority 2018, dated 2024).

Assays:
[1] = system: Ba/F3 EGFR L858R/T790M; assay: Ba/F3 cell viability, CellTiter-Glo; type: cell-based; settings: for cell viability: administered alone, FIGS. 1 to 4; for cell viability compared to EAI045: co-administered with Cetuximab, 30 nM or 100 nM, FIGS. 6 and 7
Procedure: In order to confirm that the compound represented by formula 1 according to the present invention acted as an allosteric inhibitor against EGFR wild-type and mutants, the inhibitory effect on EGFR wild-type and mutants in Ba/F3 cell lines was evaluated. In addition, in order to evaluate the cellular activity when the compound according to the present invention was co-administered with an existing drug, the cellular activity according to the combined administration was evaluated using Cetuximab used alone or in combination with chemotherapy in metastatic colorectal cancer and metastatic squamous head and neck cancer.
Particularly, the activity of the compound of the present invention against the wild-type and mutant Ba/F3 EGFR cell lines was measured as follows using the CellTiter-Glo system of Promega. CellTiter-Glo assay is a method to confirm the cell viability by measuring ATP present in cells in cell culture state. Ba/F3 EGFR wild-type and Ba/F3 EGFR L858R, Ba/F3 EGFR L858R/T790M and Ba/F3 L858R/T790M/C797S mutant cell lines were purchased from Crown Bioscience and used. Ba/F3 EGFR wild-type and Ba/F3 EGFR L858R, Ba/F3 EGFR L858R/T790M and Ba/F3 L858R/T790M/C797S mutant cell lines were cultured in RPMI containing 10% FBS, 1% penicillin-streptomycin and 1 ug/ml of puromycine in a 37° C., 5% CO2 incubator.
Analysis of the cell survival inhibitory effect of the compound according to each EGFR mutant was performed according to the following analytical reaction recipe.
BaF3 cells were aliquoted into 2500 cells/50 ul per well of a 96 well cell culture plate and cultured for 24 hours, to which 50 ul of the compound represented by formula 1 was treated at the concentrations of 0, 0.03, 0.1, 0.3, and 1 μM. The plate treated with the compound was reacted in a 37° C. incubator for 72 hours, and then left at room temperature for 30 minutes according to the CellTiter-Glo assay instruction to maintain the plate temperature at room temperature. Thereafter, 100 μl of CellTiter-Glo reagent was treated to each well of the plate, followed by shaking incubation at room temperature for 10 minutes. Finally, the […] was quantitatively measured using a luminometer, and the ability of the compound to inhibit cell viability was confirmed. The values measured at concentrations of the compound were analyzed using Prism program (version 5.01, Graphpad Software, Inc.), and the IC50 value, an index of the inhibitory ability of the compound, was calculated.

[2] = molecular target: EGFR L858R/T790M/C797S mutant enzyme (Homo sapiens (Human), UniProt P00533, C797S/L858R/T790M); assay: EGFR mutant enzyme inhibition, HTRF system (Cisbio); type: biochemical; settings: ATP 1 mM, 37° C. for 2 hours
Sequence of EGFR L858R/T790M/C797S mutant enzyme (P00533 25-1210 T790M/C797S/L858R): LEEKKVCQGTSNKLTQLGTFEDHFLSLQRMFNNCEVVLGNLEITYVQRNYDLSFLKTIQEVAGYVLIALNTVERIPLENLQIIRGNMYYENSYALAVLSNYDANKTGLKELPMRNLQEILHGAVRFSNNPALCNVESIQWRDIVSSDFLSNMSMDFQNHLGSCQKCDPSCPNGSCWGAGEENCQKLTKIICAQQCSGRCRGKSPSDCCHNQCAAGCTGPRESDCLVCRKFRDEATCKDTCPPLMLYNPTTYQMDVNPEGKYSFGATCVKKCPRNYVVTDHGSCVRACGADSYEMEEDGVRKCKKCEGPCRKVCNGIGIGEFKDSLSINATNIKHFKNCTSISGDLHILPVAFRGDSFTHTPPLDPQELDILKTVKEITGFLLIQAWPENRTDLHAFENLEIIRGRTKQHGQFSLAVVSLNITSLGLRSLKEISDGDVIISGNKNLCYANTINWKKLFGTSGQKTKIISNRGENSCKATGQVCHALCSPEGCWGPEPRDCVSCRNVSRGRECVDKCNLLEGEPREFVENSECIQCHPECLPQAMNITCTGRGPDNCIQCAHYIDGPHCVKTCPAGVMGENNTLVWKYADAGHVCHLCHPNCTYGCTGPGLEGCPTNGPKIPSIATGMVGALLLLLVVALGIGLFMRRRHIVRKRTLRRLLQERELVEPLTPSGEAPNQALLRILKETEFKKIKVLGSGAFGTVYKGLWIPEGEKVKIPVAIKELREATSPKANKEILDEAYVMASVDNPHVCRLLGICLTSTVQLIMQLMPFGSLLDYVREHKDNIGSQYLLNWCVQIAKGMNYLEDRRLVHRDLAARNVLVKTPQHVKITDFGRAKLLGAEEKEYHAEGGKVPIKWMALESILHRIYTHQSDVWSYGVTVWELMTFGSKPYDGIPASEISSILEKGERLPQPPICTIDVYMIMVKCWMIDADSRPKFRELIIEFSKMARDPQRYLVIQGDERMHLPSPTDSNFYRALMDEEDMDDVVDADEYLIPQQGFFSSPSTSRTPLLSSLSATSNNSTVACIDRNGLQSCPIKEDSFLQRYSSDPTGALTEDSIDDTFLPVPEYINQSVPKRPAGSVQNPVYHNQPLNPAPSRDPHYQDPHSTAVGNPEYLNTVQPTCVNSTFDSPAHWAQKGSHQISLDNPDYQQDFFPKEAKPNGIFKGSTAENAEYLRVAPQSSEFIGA
Procedure: In order to evaluate the inhibitory activity of the compound represented by formula 1 according to the present invention against EGFR mutation, the following experiment was performed.
The activity of the compound of the present invention against EGFR mutant enzyme was measured using the HTRF system of Cisbio Co. As an EGFR L858R/T790M/C797S mutant enzyme, a protein provided by SignalChem was purchased and used as an enzyme source.
The composition of the assay buffer used for the activity measurement was as follows: 50 mM Tris-HCl (pH 7.5), 100 mM NaCl, 7.5 mM MgCl2, 3 mM KCl, 0.01% Tween 20, 0.1% BSA, and 1 mM DTT. Herein, an enzyme reaction was performed using a peptide substrate labeled with ATP at the concentration of 1 mM and biotin at the concentration of 0.5 μM. The analysis of the EGFR activity inhibitory effect of the compound was performed according to the following analytical reaction recipe.
Component 1: 4 μl of EGFR mutant enzyme
Component 2: 2 μl of compound solution
Component 3: 4 μl of ATP and biotin-labeled peptide mixture
The enzyme reaction was initiated by mixing the component 1 and the component 2 first and then adding the component 3 thereto. After reacting the mixture at 37° C. for 2 hours, 10 μl of a measurement solution consisting of streptavidin-XL665 and europium-labeled anti-phosphotyrosine antibody provided by Cisbio was added to the enzyme reaction solution, followed by reaction at room temperature for 1 hour. Finally, the ratio of the fluorescence values at 615 nm and 665 nm was calculated using Envision equipment of Perkin-Elmer to quantitatively measure the enzyme activity and confirm the inhibitory ability of the compound. The values measured at 7 concentrations of the compound were analyzed using Prism program (version 5.01, Graphpad Software, Inc.), and the IC50 value, an index of the inhibitory ability of the compound, was calculated.

Structure (SMILES) | IC50 [2] [nM] | cell viability [1] | cell viability compared to EAI045 [1]
O=C1c2cc(-c3ccc(N4CCNCC4)cc3)ccc2CN1C(c1nc2ccccc2[nH]1)c1ccccc1O (stereo not drawn) [Example 9, 2-((1H-benzo[d]imidazole-2-yl)(2-hydroxyphenyl)methyl)-6-(4-(piperazine-1-yl)phenyl)isoindolin-1-one] | 91 | increased cell viability | significantly reduced the cell viability
Nc1ccc(-c2ccc3c(c2)C(=O)N(C(c2nc4ccccc4[nH]2)c2cc(F)ccc2O)C3)cc1 (stereo not drawn) [Example 13, 2-((1H-benzo[d]imidazole-2-yl)(5-fluoro-2-hydroxyphenyl)methyl)-6-(4-aminophenyl)isoindolin-1-one] | 98 | increased cell viability | 
N[C@@H]1CCN(c2ccc(-c3ccc4c(c3)C(=O)N([C@@H](c3cc5ccccc5[nH]3)c3cc(F)ccc3O)C4)cc2)C1 [Example 69, 6-(4-((R)-3-aminopyrrolidine-1-yl)phenyl)-2-((R)-(5-fluoro-2-hydroxyphenyl)(1H-indole-2-yl)methyl)isoindolin-1-one] | 56 |  | 
N[C@H]1CCN(c2ccc(-c3ccc4c(c3)C(=O)N([C@@H](c3cc5ccccc5[nH]3)c3cc(F)ccc3O)C4)cc2)C1 [Example 71, 6-(4-((S)-3-aminopyrrolidine-1-yl)phenyl)-2-((R)-(5-fluoro-2-hydroxyphenyl)(1H-indole-2-yl)methyl)isoindolin-1-one] | 45 |  | 

Now from value to compound, other results behind:

IC50 [2] [nM] | Structure (SMILES) | cell viability [1] | cell viability compared to EAI045 [1]
8 | O=C1c2cc(-c3ccc(N4CCNCC4)cc3)ccc2CN1[C@@H](c1cc2ccccc2[nH]1)c1cc(F)ccc1O [Example 32, (R)-2-((5-fluoro-2-hydroxyphenyl)(1H-indole-2-yl)methyl)-6-(4-(piperazine-1-yl)phenyl)isoindolin-1-one] | increased cell viability | significantly reduced the cell viability
12 | O=C1c2cc(-c3ccc(N4CCNCC4)cc3)ccc2CN1[C@@H](c1cc2ccccc2[nH]1)c1cc(Cl)ccc1O [Example 33, (R)-2-((5-chloro-2-hydroxyphenyl)(1H-indole-2-yl)methyl)-6-(4-(piperazine-1-yl)phenyl)isoindolin-1-one] | increased cell viability | significantly reduced the cell viability
250 | O=C1c2cc(-c3ccc(N4CCCC4)cc3)ccc2CN1[C@@H](c1cc2ccccc2[nH]1)c1cc(Cl)ccc1O [Example 68, (R)-2-((5-chloro-2-hydroxyphenyl)(1H-indole-2-yl)methyl)-6-(4-(pyrrolidine-1-yl)phenyl)isoindolin-1-one] |  | 
730 | N[C@@H]1CCN(c2ccc(-c3ccc4c(c3)C(=O)N([C@@H](c3cc5ccccc5[nH]3)c3cc(Cl)ccc3O)C4)cc2)C1 [Example 70, 6-(4-((R)-3-aminopyrrolidine-1-yl)phenyl)-2-((R)-(5-chloro-2-hydroxyphenyl)(1H-indole-2-yl)methyl)isoindolin-1-one] |  | 
